Series [1] deals with SK-OV-3. Kind of series: Cytotoxicity against human SKOV3 cells under aerobic condition after 5 days by SRB assay. In kind it is functional, cell-based. The following applies: SK-OV-3, 120 h.
The test system of series [2] is SK-OV-3. Kind of series: Cytotoxicity against human SKOV3 cells under hypoxic condition after 5 days by SRB assay. In kind it is functional, cell-based. The conditions noted are these: SK-OV-3, 120 h. Background: Sulforhodamine B stains cellular protein and so reports cell mass.
For series [3], the system named is SK-OV-3. Kind of series: Hypoxic cytotoxicity ratio IC50 for human SKOV3 cells under aerobic condition to IC50 for human HT-29 cells under hypoxic condition. In kind it is functional.
Series [4] has as its system HT-29. Kind of series: Cytotoxicity against human HT-29 cells under aerobic condition after 5 days by SRB assay. The conditions noted are these: HT-29, 120 h. In kind it is functional, cell-based.
The subject of series [5] is HT-29. Briefly: Cytotoxicity against human HT-29 cells under hypoxic condition after 5 days by SRB assay. It is filed as functional, cell-based. The following applies: HT-29, 120 h.
Series [6] relates to HT-29. Briefly: Hypoxic cytotoxicity ratio IC50 for human HT-29 cells under aerobic condition to IC50 for human HT-29 cells under hypoxic condition. In kind it is functional.
A short description of series [7]: Toxicity against human HT-29 xenografted ip dosed CD1 mouse assessed as maximum tolerated dose. In kind it is organism-based. The conditions noted are these: in vivo, read-out: Activity. On the technique in general: Xenograft models place foreign cells or tissue in a host animal.
The subject of series [8] is HT-29. Kind of series: Antitumor activity against human HT-29 cells xenografted in CD1 mouse after 18 hrs. In kind it is functional, cell-based.
The nature of series [9]: AUC (0 to 180 mins) in CD1 mouse at 23.7 umol/kg, iv. On the set-up: time < 3 hr, dose 23.7 umol/kg, route intravenous. It is filed as ADME, organism-based. The conditions noted are these: plasma.
Series [10] in a line: Plasma concentration in CD1 mouse at 23.7 umol/kg, iv after 15 mins. In kind it is ADME, organism-based.

This note sets out measurements from ChEMBL document CHEMBL1177682, “Hypoxic selectivity and solubility--investigating the properties of A-ring substituted nitro seco-1,2,9,9a-tetrahydrocyclopropa[c]benz[e]indol-4-ones (nitroCBIs) as hypoxia-activated prodrugs for antitumor therapy” (Bioorg Med Chem, 2010).

Activity calls are given as the source filed them. The calls are words filed in the database; no cut-off is given here.

What is called IC50 is the concentration at which inhibition is half-maximal. The low end stands for higher potency, the high end for lower potency. On to `COc1cc2cc(C(=O)N3CC(CCl)c4c3cc([N+](=O)[O-])c3cc(C(=O)NCCN(C)C)ccc43)[nH]c2c(OC)c1OC` (stereo not given), for which the half-inhibitory concentration (IC50) was 2000 nM in the series on SK-OV-3 [1], 140 nM with SK-OV-3 [2], 1500 nM with HT-29 [4] and 300 nM in the series on HT-29 [5]. Further, the “Ratio IC50” value with SK-OV-3 [3] stood at 24; in the series on HT-29 [6], 5.9.

As for `CNS(=O)(=O)c1ccc2c3c(cc([N+](=O)[O-])c2c1)N(C(=O)c1cc2cc(OCCN(C)C)ccc2[nH]1)CC3CCl` (stereo not given), the IC50 with SK-OV-3 [1] was found to be 2600 nM; with SK-OV-3 [2], 120 nM; in the series on HT-29 [4] it was 2700 nM; in the series with HT-29 [5] it was 130 nM. Also, the “Ratio IC50” value came to 21 in the series with SK-OV-3 [3] and 24 in the series on HT-29 [6].

What is called AUC(0-t) is the area under the concentration-time curve up to a stated or last time point. Low values mean less exposure, high ones more exposure. Regarding `CN(C)CCNS(=O)(=O)c1ccc2c3c(cc([N+](=O)[O-])c2c1)N(C(=O)c1cc2cc(OCCN(C)C)ccc2[nH]1)CC3CCl` (stereo not given), the IC50 came to 830 nM in the series with SK-OV-3 [1], 6.6 nM in the series with SK-OV-3 [2], 730 nM in the series with HT-29 [4] and 9 nM in the series on HT-29 [5]. The results for the “Ratio IC50” value in the series on SK-OV-3 [3] and in the series with HT-29 [6] were 130 and 110, respectively. In addition, in series [7], the MTD came to 23.7 µmol/kg. Further, the outcome in the series with HT-29 [8] was inactive. Further, the AUC(0-t) at 3 h in [9] is below 0.03 µM·h. This molecule returned a concentration at […] in [10] below 10 nM.

In the case of `CN(C)CCOc1ccc2[nH]c(C(=O)N3CC(CCl)c4c3cc([N+](=O)[O-])c3cc(N)ccc43)cc2c1` (stereo not given), the IC50 is 2500 nM in the series with SK-OV-3 [1], 1300 nM with SK-OV-3 [2], 1800 nM in the series with HT-29 [4] and 760 nM with HT-29 [5]. Also, the entries for the “Ratio IC50” value in the series on SK-OV-3 [3] and with HT-29 [6] were 2 and 2.4, respectively.

Turning to `CNS(=O)(=O)c1ccc2c3c(cc(N)c2c1)N(C(=O)c1cc2cc(OCCN(C)C)ccc2[nH]1)CC3CCl` (stereo not given), the IC50 was 20 nM in the series with SK-OV-3 [1], 11 nM with SK-OV-3 [2], 24 nM in the series with HT-29 [4] and 20 nM in the series with HT-29 [5].

Regarding `CN(C)CCOc1ccc2[nH]c(C(=O)N3CC(CCl)c4c3cc([N+](=O)[O-])c3cc(S(=O)(=O)N(C)C)ccc43)cc2c1` (stereo not given), the IC50 with SK-OV-3 [1] worked out at 500 nM; with SK-OV-3 [2], 210 nM; with HT-29 [4], 1100 nM; with HT-29 [5] it was 370 nM. In addition, the “Ratio IC50” value is reported as 2.4 in the series on SK-OV-3 [3] and 3.6 in the series on HT-29 [6].

On to `CN(C)CCOc1ccc2[nH]c(C(=O)N3CC(CCl)c4c3cc([N+](=O)[O-])c3cc(S(N)(=O)=O)ccc43)cc2c1` (stereo not given), for which the IC50 was 6900 nM in the series with SK-OV-3 [1], 28 nM with SK-OV-3 [2], 4600 nM in the series with HT-29 [4] and 18 nM in the series on HT-29 [5].

Consider `CN(C)CCOc1ccc2[nH]c(C(=O)N3CC(CCl)c4c3cc([N+](=O)[O-])c3cc(S(=O)(=O)NN)ccc43)cc2c1` (stereo not given), for which the IC50 was determined as 33000 nM with SK-OV-3 [1], 210 nM in the series on SK-OV-3 [2], 31000 nM with HT-29 [4] and 160 nM in the series with HT-29 [5]. The figures for the “Ratio IC50” value in the series on SK-OV-3 [3] and in the series on HT-29 [6] were 160 and 220, respectively.

As for `CN(C)CCOc1ccc2[nH]c(C(=O)N3CC(CCl)c4c3cc([N+](=O)[O-])c3cc(S(=O)(=O)NO)ccc43)cc2c1` (stereo not given), the concentration for half-maximal inhibition (IC50) in the series on SK-OV-3 [1] amounted to 24000 nM; in the series with SK-OV-3 [2] it was 450 nM; in the series with HT-29 [4], 24000 nM; in the series on HT-29 [5] it was 150 nM. For the same molecule, the “Ratio IC50” value in the series with SK-OV-3 [3] is listed as 55; with HT-29 [6], 160.

As to `COc1cc2cc(C(=O)N3CC(CCl)c4c3cc([N+](=O)[O-])c3ccc(C(=O)NCCN(C)C)cc43)[nH]c2c(OC)c1OC` (stereo not given), the half-inhibitory concentration (IC50) in the series with SK-OV-3 [1] was 2500 nM; with SK-OV-3 [2], 180 nM; with HT-29 [4] it was 1300 nM; in the series on HT-29 [5], 540 nM. In addition, the entries for the “Ratio IC50” value with SK-OV-3 [3] and in the series with HT-29 [6] were 16 and 2.4, respectively.
